Columns and labels:
COX II enzyme = details: in words, literature; cited from earlier work
COX I = assay: Assay for COX I activity (PGE2 ELISA, recombinant enzyme); type: biochemical, human or murine; details: arachidonic acid (10 μM), pre-incubated 10-20 minutes, pH 8.0; read-out: COX I ID50
Procedure: (§1) A 2.0 kb fragment containing the coding region of either human or murine COX-I or human or murine COX-II was cloned into a BamH1 site of the baculovirus transfer vector pVL1393 (Invitrogen) to generate the baculovirus transfer vectors for COX-I and COX-II in a manner similar to the method of D. R. O'Reilly et al (Baculovirus Expression Vectors: A Laboratory Manual (1992)). Recombinant baculoviruses were isolated by transfecting 4 μg of baculovirus transfer vector DNA into SF9 insect cells (2×10e8) along with 200 ng of linearized baculovirus plasmid DNA by the calcium phosphate method. See M. D. Summers and G. E. Smith, A Manual of Methods for Baculovirus Vectors and Insect Cell Culture Procedures. Texas Agric. Exp. Station Bull. 1555 (1987). Recombinant viruses were purified by three rounds of plaque purification and high titer (10E7-10E8 pfu/ml) stocks of virus were prepared. For large scale production, SF9 insect cells were infected in 10 liter fermentors (0.5×10^6 /ml) with the recombinant baculovirus stock such that the multiplicity of infection was 0.1. […]
(§2) COX activity was assayed as PGE2 formed/μg protein/time using an ELISA to detect the prostaglandin released. […] The PGE2 formed was measured by standard ELISA technology (Cayman Chemical).

COX II = assay: Assay for COX II activity (PGE2 ELISA, recombinant enzyme); type: biochemical, human or murine; details: arachidonic acid (10 μM), pre-incubated 10-20 minutes, pH 8.0; read-out: COX II ID50
Procedure: as §1, §2

IC50 (COX I) [nM] | IC50 (COX II) [nM] | Compound | inhibition of the COX II enzyme (COX II enzyme)
 |  | COc1ccc2cc(CC(=O)O)ccc2c1 [6-methoxy-2-napthylacetic acid] | selectively inhibit the COX II enzyme
3680 | 50 | CC1(C)C=C(c2ccc(F)cc2)C(c2ccc(S(C)(=O)=O)cc2)=C1 [Example 1, 1-Methylsulfonyl-4-[1,1-dimethyl-4-(4-fluorophenyl)cyclopenta-2,4-dien-3-yl]benzene] | 
 |  | CS(=O)(=O)Nc1ccc([N+](=O)[O-])cc1OC1CCCCC1 [N-(2-cyclohexyloxy-4-nitrophenyl)methanesulfonamide] | inhibits the COX II enzyme

— patent US5576339A, “Pyridyl substituted cyclopentadienes for the treatment of inflamation” (priority 1995, dated 1996)
